# Test results published in PubChem BioAssay AID1963830 (Molecular Pharmacology Branch, DTP, NCI, 2024).
# Tested on: 922993-354-T-J3-PDC complex spheroid viability
# Test: Anticancer human tumor 922993-354-T-J3-PDC patient-derived endometrial carcinoma cell line growth inhibition [POLQ]
# Settings: for IC50: curve of first compound; for viability, T/C: stronger effect = lower value
# Method: Multicellular complex tumor spheroid response to Polymerase (POL) inhibitors (novobiocin, ART-558, RP6685) in combination with a variety of drugs and investigational agents in selected tumor cell lines
# The POL inhibitors (novobiocin, ART-558, and RP6685) were evaluated both individually and in combination with standard of care and investigational anticancer small molecules within a complex spheroid model of solid tumors. . Complex spheroids include a stromal component modeled by human endothelial cells (HUVEC) and fibroblasts modeled by human mesenchymal stem cells (MSCs). The concentration ranges selected for each drug and investigational agent were based upon clinically achievable concentrations if the clinical Cmax of the agent was known.
# Compounds. The drugs and investigational agents: novobiocin (NSC847541), ART-558 (NSC835418), RP-6685 (NSC848927), peposertib (NSC802822), ceralasertib (NSC780249), elimusertib (NSC800525), camonsertib (NSC841442), AZD-1390 (NSC803789), olaparib (NSC753686), talazoparib (NSC767125), rucaparib (NSC756644), sotorasib (NSC818433), MRTX-1133 (NSC836407), SN-38 (NSC673596), topotecan (NSC609699), epotoside (NSC141540), doxorubicin (NSC123127), gemcitabine (NSC613327), 5-fluorouracil (NSC19893), paclitaxel (NSC125973), vemurafenib (NSC761431), MSA-2 (NSC828583), SN-011 (NSC837082), adavosertib (NSC754352), prexasertib (NSC758257), carboplatin (NSC241240) and oxaliplatin (NSC266046), were obtained from the National Cancer Institute (NCI) Developmental Therapeutics Program Chemical Repository (21). The FDA-approved anticancer drug set is available from the Developmental Therapeutics Program at https://dtp.cancer.gov/organization/dscb/obtaining/. […] The stock solutions were prepared in dimethyl sulfoxide (DMSO, Sigma-Aldrich, St. Louis, MO, cat. D2650), except for the platinum compounds which were prepared in saline (Quality Biological, Gaithersburg, MD, cat. 114-055-101), at 800-fold the tested concentration and stored at -70 degrees C prior to their use. All drugs and investigational agents were tested over a range starting from a high concentration at or near the clinical Cmax and decreasing in half-log increments. If the clinical Cmax for an agent had not been determined, the highest concentration tested was 10 microM, except for SN-38, which was tested at a high concentration of 1 microM.
# Cell Culture. All cells were maintained in an incubator at 37 degrees C and 5% CO2 with 95% humidity. The PDC lines were cultured according to standard operating procedures established by the NCI PDMR (https://pdmr.cancer.gov). Table 3 of the manuscript, lists the cell lines along with the number of the three cell types plated to form the mct-spheroids and media for tumor cell growth. After thawing, all PDC lines, except 997537-175-T-J1-PDC and 415267-285-R-J2-PDC, were cultured in Matrigel-coated flasks prepared with a working solution of 1X Ham's F-12 nutrient mix, without supplementation (Thermo Fisher Scientific, cat. 11765054), 100 U/mL penicillin-streptomycin (Thermo Fisher Scientific, cat. 15140122), and 2.5% Matrigel (Corning Inc., Corning, NY, cat. 354248) for the first three passages. The two PDC lines 997537-175-T-J1-PDC and 415267-285-R-J2-PDC were cultured on uncoated flasks. The 857933-349-R-J2-PDC line was cultured in 6C/Colon 1B media containing advanced DMEM/F-12 (Thermo Fisher Scientific, cat. 12634028), 10 mM HEPES (Thermo Fisher Scientific, cat. 15630080), 1X GlutaMAX supplement (Thermo Fisher Scientific, cat. 35050061), 0.1 mg/mL primocin (InvivoGen, San Diego, CA, cat. ant-pm-2), 10% defined fetal bovine serum, heat inactivated (HyClone Laboratories Inc., Logan, UT, cat. SH30070.03HI), 50% L-WRN conditioned media (ATCC, cat. CRL-3276), 1.25 mM N-Acetyl-L-cysteine (Sigma-Aldrich, cat. A9165), 10 mM nicotinamide (Sigma-Aldrich, cat. N0636), 1X B-27 supplement (Thermo Fisher Scientific, cat. 17504044), 1X N-2 supplement (Thermo Fisher Scientific, cat. […]
# [1] = second compound 0.0316 µM, first compound 0.00316 µM
# [2] = second compound 0.0316 µM, first compound 0.01 µM
# [3] = second compound 0.0316 µM, first compound 0.0316 µM
# [4] = second compound 0.0316 µM, first compound 0.1 µM
# [5] = second compound 0.0316 µM, first compound 0.316 µM
# [6] = second compound 0.0316 µM, first compound 1 µM
# [7] = second compound 0.1 µM, first compound 0.00316 µM
# [8] = second compound 0.1 µM, first compound 0.01 µM
# [9] = second compound 0.1 µM, first compound 0.0316 µM
# [10] = second compound 0.1 µM, first compound 0.1 µM
# [11] = second compound 0.1 µM, first compound 0.316 µM
# [12] = second compound 0.1 µM, first compound 1 µM
# [13] = second compound 0.316 µM, first compound 0.00316 µM
# [14] = second compound 0.316 µM, first compound 0.01 µM
# [15] = second compound 0.316 µM, first compound 0.0316 µM
# [16] = second compound 0.316 µM, first compound 0.1 µM
# [17] = second compound 0.316 µM, first compound 0.316 µM
# [18] = second compound 0.316 µM, first compound 1 µM
# [19] = second compound 1 µM, first compound 0.00316 µM
# [20] = second compound 1 µM, first compound 0.01 µM
# [21] = second compound 1 µM, first compound 0.0316 µM
# [22] = second compound 1 µM, first compound 0.1 µM
# [23] = second compound 1 µM, first compound 0.316 µM
# [24] = second compound 1 µM, first compound 1 µM
# [25] = second compound 3.16 µM, first compound 0.00316 µM
# [26] = second compound 3.16 µM, first compound 0.01 µM
# [27] = second compound 3.16 µM, first compound 0.0316 µM
# [28] = second compound 3.16 µM, first compound 0.1 µM
# [29] = second compound 3.16 µM, first compound 0.316 µM
# [30] = second compound 3.16 µM, first compound 1 µM
# [31] = second compound 10 µM, first compound 0.00316 µM
# [32] = second compound 10 µM, first compound 0.01 µM
# [33] = second compound 10 µM, first compound 0.0316 µM
# [34] = second compound 10 µM, first compound 0.1 µM
# [35] = second compound 10 µM, first compound 0.316 µM
# [36] = second compound 10 µM, first compound 1 µM
# 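Further: spheroids exposed to the agents for one week.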
# 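Wherever viability, T/C is given: 100% = DMSO vehicle control wells.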
smiles,measurement,setting,value
CCc1c2c(nc3ccc(O)cc13)-c1cc3c(c(=O)n1C2)COC(=O)[C@]3(O)CC + Nc1ccc(C#CCN(C(=O)Cc2ncc(C(F)(F)F)cc2C(F)(F)F)c2ccc(F)cc2)nn1,IC50,second compound 0.0316 µM,27.9 nM
same,IC50,second compound 0.1 µM,26.2 nM
same,IC50,second compound 0.316 µM,31 nM
same,IC50,second compound 1 µM,32.2 nM
same,IC50,second compound 3.16 µM,22.1 nM
same,IC50,second compound 10 µM,14.4 nM
same,"viability, T/C",[1],99%
same,"viability, T/C",[2],91.1%
same,"viability, T/C",[3],45.5%
same,"viability, T/C",[4],20.1%
same,"viability, T/C",[5],18.8%
same,"viability, T/C",[6],26.7%
same,"viability, T/C",[7],100%
same,"viability, T/C",[8],88.8%
same,"viability, T/C",[9],43.3%
same,"viability, T/C",[10],17.9%
same,"viability, T/C",[11],19.8%
same,"viability, T/C",[12],24.8%
same,"viability, T/C",[13],104%
same,"viability, T/C",[14],92.2%
same,"viability, T/C",[15],50.3%
same,"viability, T/C",[16],20.3%
same,"viability, T/C",[17],16.8%
same,"viability, T/C",[18],26.6%
same,"viability, T/C",[19],102%
same,"viability, T/C",[20],88.9%
same,"viability, T/C",[21],52.4%
same,"viability, T/C",[22],18.4%
same,"viability, T/C",[23],17.7%
same,"viability, T/C",[24],25.9%
same,"viability, T/C",[25],95.6%
same,"viability, T/C",[26],76.3%
same,"viability, T/C",[27],39.7%
same,"viability, T/C",[28],17.4%
same,"viability, T/C",[29],18.2%
same,"viability, T/C",[30],27.7%
same,"viability, T/C",[31],87%
same,"viability, T/C",[32],63.9%
same,"viability, T/C",[33],16.1%
same,"viability, T/C",[34],16.3%
same,"viability, T/C",[35],20.1%
same,"viability, T/C",[36],29.6%
COc1cccc(OCCCN)c1-c1cc(Nc2cnc(C#N)cn2)n[nH]1 + Nc1ccc(C#CCN(C(=O)Cc2ncc(C(F)(F)F)cc2C(F)(F)F)c2ccc(F)cc2)nn1,IC50,second compound 0.0316 µM,590 nM
same,IC50,second compound 0.1 µM,670 nM
same,IC50,second compound 0.316 µM,617 nM
same,IC50,second compound 1 µM,609 nM
same,IC50,second compound 3.16 µM,277 nM
same,IC50,second compound 10 µM,52.3 nM
same,"viability, T/C",[1],102%
same,"viability, T/C",[2],100%
same,"viability, T/C",[3],98.2%
same,"viability, T/C",[4],97.3%
same,"viability, T/C",[5],83.4%
same,"viability, T/C",[6],22.1%
same,"viability, T/C",[7],104%
same,"viability, T/C",[8],99%
same,"viability, T/C",[9],95.9%
same,"viability, T/C",[10],98.5%
same,"viability, T/C",[11],99.1%
same,"viability, T/C",[12],23.8%
same,"viability, T/C",[13],102%
same,"viability, T/C",[14],98.2%
same,"viability, T/C",[15],94.7%
same,"viability, T/C",[16],99.7%
same,"viability, T/C",[17],92.3%
same,"viability, T/C",[18],19.4%
same,"viability, T/C",[19],102%
same,"viability, T/C",[20],105%
same,"viability, T/C",[21],101%
same,"viability, T/C",[22],96.3%
same,"viability, T/C",[23],94%
same,"viability, T/C",[24],16.9%
same,"viability, T/C",[25],96.1%
same,"viability, T/C",[26],98.1%
same,"viability, T/C",[27],99.2%
same,"viability, T/C",[28],94.2%
same,"viability, T/C",[29],44.3%
same,"viability, T/C",[30],14.8%
same,"viability, T/C",[31],95.9%
same,"viability, T/C",[32],92.8%
same,"viability, T/C",[33],74.7%
same,"viability, T/C",[34],18.3%
same,"viability, T/C",[35],10.5%
same,"viability, T/C",[36],10.6%
